Assay results from US5436369A, “Alicyclic phospholipase A2 inhibitors” (Bristol-Myers Squibb Company, priority 1994, dated 1995).

Biological target: T1, PLA2 (Homo sapiens, UniProt P14555)
T1 construct: The enzyme is isolated from human platelets; from tissue; host or cells: human platelets
T1 sequence (P14555 21-144): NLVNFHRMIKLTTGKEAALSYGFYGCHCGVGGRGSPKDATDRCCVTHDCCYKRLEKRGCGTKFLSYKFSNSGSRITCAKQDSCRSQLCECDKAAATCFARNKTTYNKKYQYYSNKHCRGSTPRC
Assay: PLA2 Inhibition Assay (14C-oleate labeled E. coli membrane substrate)
Format: biochemical
Settings: enzyme isolated from human platelets
Protocol: The method used is similar to that reported by Franson, et al. [Jesse, R. L. and Franson R. C., Biochim. Biophys. Acta 575:467-470 (1979); Franson, R. C., Patriarca, P., and Elsback, P., J. Lipid Res. 15: 380-388 (1974)]. The enzyme is isolated from human platelets. The substrate used consists of ^14 C-oleate labeled Escherichia coli membranes. E. coli cells are grown in the presence of ^14 C-oleic acid and then autoclaved to prepare the membranes.
Various concentrations of test compounds are pre-incubated with PLA2 (3.6 μg/mL in a buffer consisting of 25 mM HEPES (pH 7)), 150 mM NaCl, 5.0 mM CaCl2, and 10% DMSO (v/v, test compound solvent) at 37° C. for 7 minutes. The E. coli membrane substrate is then added (0.1 mM phospholipid, 0.005 μCi ^14 C) and the reaction is then incubated at 37° C. for 30 minutes. The reaction is then terminated by the addition of 1.9 mL tetrahydrofuran (THF), and the entire solution is applied to a solid-phase extraction column (aminopropyl resin, Analytichem). The column is rinsed with an additional 1 mL of THF. The free fatty acid product of the reaction is then eluted from the column with 1 mL of 2% acetic acid in THF and collected in a scintillation vial. The amount of free fatty acid product is determined by liquid scintillation counting. The amount of inhibition produced by the test compound is calculated by comparing the counts obtained in the presence of the compound to those obtained in its absence (solvent only). Background counts were determined by performing incubations in the absence of enzyme.
Percent inhibition is determined by the equation: [formula]

[1] = Table 1, Structure 11 (Type IA), 100 μM
[2] = Table 2, Structure 14 (Type IA), 100 μM

Row | SMILES | inhibition at 100 µM [1] [%] | inhibition at 100 µM [2] [%] | also measured
1 | C/C(=C\CC(/C=C\C(=O)O)c1cccc(C(=O)O)c1)c1ccc2c(c1)C(C)(C)CCC2(C)C (racemic) [Structure 32c] | – | – | % Inhibition of PLA2 at 100 μm (Table 5, Structure 32 (Type IC), 100 μm as printed): 67%
2 | O=C(O)/C=C\C(=C\c1ccccc1)c1cccc(C(=O)O)c1 [Structure 11a, (2Z),(4Z)-4-(3-Carboxyphenyl)-5-phenyl-2,4-pentadienoic acid] | 6 | – | –
3 | CC1(C)CCC(C)(C)c2cc(/C=C(/C=C\C(=O)O)c3cccc(C(=O)O)c3)ccc21 [Structure 11b, (2Z),(4Z)-4-(3-Carboxyphenyl)-5-(5,6,7,8-tetrahydro-5,5,8,8-tetramethyl-2-naphthalenyl)-2,4-pentadienoic acid] | 44 | – | –
4 | CC1(C)CCC(C)(C)c2cc3cc(/C=C(/C=C\C(=O)O)c4cccc(C(=O)O)c4)ccc3cc21 [Structure 11c, (2Z),(4Z)-4-(3-Carboxyphenyl)-5-(5,6,7,8-tetrahydro-5,5,8,8-tetramethyl-2-anthracenyl)-2,4-pentadienoic acid] | 97 | – | –
5 | CCCCCCCCCCOc1ccc(/C=C(/C=C\C(=O)O)c2cccc(C(=O)O)c2)cc1 [Structure 11d, (2Z),(4Z)-4-(3-Carboxyphenyl)-5-(4-decyloxyphenyl)-2,4-pentadienoic acid] | 100 | – | –
6 | CCCCCCCCCCOc1ccc(/C=C(/C=C\C(=O)O)c2cccc(C(=O)O)c2)cc1OCCCCCCCCCC [Structure 11e, (2Z),(4Z)-4-(3-Carboxyphenyl)-5-(3,4-bisdecyloxyphenyl)-2,4-pentadienoic a cid] | 100 | – | –
7 | O=C(O)/C=C\C(=C\CCc1ccccc1)c1cccc(C(=O)O)c1 [Structure 11f, (2Z),(4Z)-4-(3-Carboxyphenyl)-7-phenyl-2,4-heptadienoic acid] | 15 | – | –
8 | CC1(C)CCC(C)(C)c2cc(CC/C=C(/C=C\C(=O)O)c3cccc(C(=O)O)c3)ccc21 [Structure 11g, (2Z),(4Z)-4-(3-Carboxyphenyl)-7-(5,6,7,8-tetrahydro-5,5,8,8-tetramethyl-2-naphthalenyl)-2,4-heptadienoic acid] | 58 | – | –
9 | C\C(=C/C=C(/C=C\C(=O)O)c1cccc(C(=O)O)c1)c1ccc2c(c1)C(C)(C)CCC2(C)C [Structure 11h, (2Z),(4Z),(6E)-4-(3-Carboxyphenyl)-7-(5,6,7,8-tetrahydro-5,5,8,8-tetramethyl-2-naphthalenyl)-2,4,6-octatrienoic acid] | 97 | – | –
10 | COc1cc(CC/C=C(/C=C\C(=O)O)c2cccc(C(=O)O)c2)ccc1C12CC3CC(CC(C3)C1)C2 [Structure 11i, (2Z),(4Z)-4-(3-Carboxyphenyl)-7-[4-(1-adamantyl)-3-methoxyphenyl]-2,4-heptadienoic acid] | 100 | – | –
11 | COc1ccc(CC/C=C(/C=C\C(=O)O)c2cccc(C(=O)O)c2)cc1C12CC3CC(CC(C3)C1)C2 [Structure 11j, (2Z),(4Z)-4-(3-Carboxyphenyl)-7-[3-(1-adamantyl)-4-methoxyphenyl]-2,4-heptadienoic acid] | 98 | – | –
12 | CC(=C/C(=O)O)/C(=C/c1ccc2cc3c(cc2c1)C(C)(C)CCC3(C)C)c1cccc(C(=O)O)c1 [Structure 11k, (2Z),(4Z)-3-Methyl-4-(3-carboxyphenyl)-5-(5,6,7,8-tetrahydro-5,5,8,8-tetramethyl-2-anthracenyl)-2,4-pentadienoic acid] | 98 | – | –
13 | CCCCCCCCCCOc1ccc(/C=C(/C=C\C(=O)O)c2cccc(C(F)(F)F)c2)cc1 [Structure 14a, (2Z),(4Z)-4-(3-Trifluoromethylphenyl)-5-(4-decyloxyphenyl)-2,4-pentadienoic acid] | – | 100 | –
14 | CCCCCCCCCCOc1cccc(/C=C(/C=C\C(=O)O)c2cccc(C(F)(F)F)c2)c1 [Structure 14b, (2Z),(4Z)-4-(3-Trifluoromethylphenyl)-5-(3-decyloxyphenyl)-2,4-pentadienoic acid] | – | 100 | –
15 | CCCCCCCCCCOc1ccccc1/C=C(/C=C\C(=O)O)c1cccc(C(F)(F)F)c1 [Structure 14c, (2Z),(4Z)-4-(3-Trifluoromethylphenyl)-5-(2-decyloxyphenyl)-2,4-pentadienoic acid] | – | – | % Inhibition of PLA2 at 100 μM [2]: 92%
16 | CC(C)=CCC/C(C)=C/COc1ccc(/C=C(/C=C\C(=O)O)c2cccc(C(F)(F)F)c2)cc1 [Structure 14d] | – | 98 | –
17 | CCCCCCCCCCOc1ccc(/C=C(/C=CC(=O)O)c2cccc(C(F)(F)F)c2)cc1OCCCCCCCCCC [Structure 14e, (2Z),(4Z)-4-(3-Trifluoromethylphenyl)-5-(3,4-bisdecyloxyphenyl)-2,4-pentadienoic acid/(2E),(4Z)-4-(3-Trifluoromethylphenyl)-5-(3,4-bisdecyloxyphenyl)-2,4-pentadienoic acid] | – | 99 | –
18 | CC1(C)CCC(C)(C)c2cc3cc(/C=C(/C=C\C(=O)O)c4cccc(C(F)(F)F)c4)ccc3cc21 [Structure 14f, (2Z), (4Z)-4-(3-trifluoromethylphenyl)-5-(5,6,7,8-tetrahydro-5,5,8,8-tetramethyl-2-anthracenyl)-2,4-pentadienoic acid] | – | 71 | –
19 | CC1(C)CCC(C)(C)c2cc(CC/C=C(/C=C\C(=O)O)c3cccc(C(F)(F)F)c3)ccc21 [Structure 14g, (2Z),(4Z)-4-(3-Trifluoromethylphenyl)-7-(5,6,7,8-tetrahydro-5,5,8,8-tetramethyl-2-naphthalenyl)-2,4-heptadienoic acid] | – | 96 | –
20 | CC1(C)CCC(C)(C)c2cc(CC/C=C(/C=C\C(=O)O)c3ccc(F)cc3)ccc21 [Structure 14h, (2Z),(4Z)-4-(4-Fluorophenyl)-7-(5,6,7,8-tetrahydro-5,5,8,8-tetramethyl-2-naphthalenyl)-2,4-heptadienoic acid] | – | 96 | –
21 | CC1(C)CCC(C)(C)c2cc(CC/C=C(/C=C\C(=O)O)c3cccc(F)c3)ccc21 [Structure 14i, (2Z),(4Z)-4-(3-Fluorophenyl)-7-(5,6,7,8-tetrahydro-5,5,8,8-tetramethyl-2-naphthalenyl)-2,4-heptadienoic acid] | – | 96 | –
22 | CC1(C)CCC(C)(C)c2cc(CC/C=C(/C=C\C(=O)O)c3ccccc3)ccc21 [Structure 14j, (2Z),(4Z)-4-Phenyl-7-(5,6,7,8-tetrahydro-5,5,8,8-tetramethyl-2-naphthalenyl)-2,4-heptadienoic acid] | – | 92 | –
23 | COc1ccc(CC/C=C(/C=C\C(=O)O)c2cccc(C(F)(F)F)c2)cc1C12CC3CC(CC(C3)C1)C2 [Structure 14k, (2Z),(4Z)-4-(3-Trifluoromethylphenyl)-7-[3-(1-adamantyl)-4-methoxyphenyl]-2,4-heptadienoic acid] | – | 99 | –
24 | COc1ccc(CC/C=C(/C=C\C(=O)O)c2ccccc2)cc1C12CC3CC(CC(C3)C1)C2 [Structure 14l, (2Z),(4Z)-4-Phenyl-7-[3-(1-adamantyl)-4-methoxyphenyl]-2,4-heptadienoic acid] | – | 99 | –
25 | COc1cc(CC/C=C(/C=C\C(=O)O)c2cccc(C(F)(F)F)c2)ccc1C12CC3CC(CC(C3)C1)C2 [Structure 14m, (2Z),(4Z)-4-(3-Trifluoromethylphenyl)-7-[4-(1-adamantyl)-3-methoxyphenyl]-2,4-heptadienoic acid] | – | 99 | –
26 | COc1cc(CC/C=C(/C=C\C(=O)O)c2ccccc2)ccc1C12CC3CC(CC(C3)C1)C2 [Structure 14n, (2Z),(4Z)-4-Phenyl-7-[4-(1-adamantyl)-3-methoxyphenyl]-2,4-heptadienoicacid] | – | 100 | –
27 | COc1ccc(CC/C=C(/C=C\C(=O)O)c2cccc(C(F)(F)F)c2)c(C23CC4CC(CC(C4)C2)C3)c1 [Structure 14o, (2Z),(4Z)-4-(3-Trifluoromethylphenyl)-7-[2-(1-adamantyl)-4-methoxyphenyl]-2,4-heptadienoic acid] | – | 99 | –
28 | COc1cc(/C=C(/C=C\C(=O)O)c2cccc(C(F)(F)F)c2)ccc1C12CC3CC(CC(C3)C1)C2 [Structure 14p, (2Z),(4Z)-4-(3-Trifluoromethylphenyl)-5-[-4-(1-adamantyl)-3-methoxyphenyl]-2,4-pentadienoic acid] | – | 93 | –
29 | O=C(O)/C=C\C(=C\CCc1ccc(C23CC4CC(CC(C4)C2)C3)c(O)c1)c1cccc(C(F)(F)F)c1 [Structure 14q, (2Z),(4Z)-4-(3-Trifluoromethylphenyl)-7-[4-(1-adamantyl)-3-hydroxyphenyl]-2,4-heptadienoic acid] | – | 100 | –
30 | CCCCCOc1cc(CC/C=C(/C=C\C(=O)O)c2cccc(C(F)(F)F)c2)ccc1C12CC3CC(CC(C3)C1)C2 [Structure 14r, (2Z),(4Z)-4-(3-Trifluoromethylphenyl)-7-[4-(1-adamantyl)-3-pentyloxyphenyl]-2,4-heptadienoic acid] | – | 95 | –
